Results reported in patent US20150105252A1, “SUBSTITUTED PYRAZOLES AS HERBICIDES” (E I DU PONT DE NEMOURS AND COMPANY, priority 2013, published 2015).

Assays:
barnyardgrass = test: Test C flooded paddy test; type: in vivo, Echinochloa crus-galli; details: Flood
Method in brief: (§1)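 Ratings were visual and made relative to untreated controls after 13 to 15 greenhouse days.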

ducksalad = test: Test C flooded paddy test; type: in vivo, Heteranthera limosa; details: Flood
Method in brief: as §1

ragweed = test: Test C postemergence; type: in vivo, Ambrosia elation; details: postemergence
Method in brief: (§2)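 Greenhouse pot test: preemergence application onto freshly seeded loam/sand mix, postemergence application onto seedlings (1–4 leaves, 2–18 cm) in peat-vermiculite substrate. Responses scored visually 13 to 15 days later relative to controls, where 0 means no effect and 100 means complete control; a dash indicates no result.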

soybean = test: Test C preemergence; type: in vivo, Glycine max; details: preemergence; for Plant response rating, Soybean: 125 g ai/ha, scale 0 to 100, 0 = no effect, 100 = complete control
Method in brief: as §2

ryegrass, Italian = test: Test C postemergence; type: in vivo, Lolium multiflorum; details: postemergence
Method in brief: as §2

pigweed = test: Test C preemergence; type: in vivo, Amaranthus retroflexus; details: preemergence; for Plant response rating, Pigweed: 125 g ai/ha, scale 0 to 100, 0 = no effect, 100 = complete control
Method in brief: as §2

rice = test: Test C flooded paddy test; type: in vivo, Oryza sativa; details: Flood
Method in brief: as §1

sedge, umbrella = test: Test C flooded paddy test; type: in vivo, Cyperus difformis; details: Flood
Method in brief: as §1

[1] = 31 g ai/ha, scale 0 to 100 (0 no effect, 100 complete control)
[2] = 62 g ai/ha, scale 0 to 100 (0 no effect, 100 complete control)
[3] = 125 g ai/ha, scale 0 to 100 (0 no effect, 100 complete control)
[4] = 250 g ai/ha, scale 0 to 100 (0 no effect, 100 complete control)
[5] = 125 g ai/ha, scale 0 to 100, 0 no effect, 100 complete control
[6] = 31 g ai/ha, visual rating, scale 0 to 100 (0 no effect, 100 complete control), 13 to 15 days
[7] = 62 g ai/ha, scale 0 to 100 (0 no effect, 100 complete control), 13 to 15 days
[8] = 250 g ai/ha, scale 0 to 100, 0 is no effect, 100 is complete control

SMILES	Plant response rating, Barnyardgrass (barnyardgrass; [2])	Plant response rating, Barnyardgrass (barnyardgrass; [3])	Plant response rating, Barnyardgrass (barnyardgrass; 250 g ai/ha, scale 0 to 100)	Plant response rating, Ducksalad (ducksalad; [2])	Plant response rating, Ducksalad (ducksalad; [3])	Plant response rating, Ducksalad (ducksalad; 250 g ai/ha, scale 0 to 100)	Plant response rating, Ragweed (ragweed; [4])	Plant response rating, Ragweed (ragweed; [5])	Soybean plant response rating (soybean; [6])	Soybean plant response rating (soybean; [7])	Plant response rating, Soybean (soybean; 13 to 15 days)	Soybean plant response rating (soybean; [8])	Plant response rating, Ryegrass, Italian (ryegrass, Italian; [4])	Plant response rating, Ryegrass, Italian (ryegrass, Italian; [5])	Pigweed plant response rating (pigweed; [6])	Pigweed plant response rating (pigweed; [7])	Plant response rating, Pigweed (pigweed; 13 to 15 days)	Pigweed plant response rating (pigweed; [8])	Plant response rating, Rice (rice; [2])	Plant response rating, Rice (rice; [3])	also measured
CCCNC(=O)c1cc(CCF)n(Cc2ccnc(C(F)(F)F)c2)n1 [Compound 177]	0	0	0	50	75	85	75	70	40	70	95	98	5	5	100	100	100	100	0	0	Plant response rating, Barnyardgrass (barnyardgrass; [1]): 0; Plant response rating, Ducksalad (ducksalad; [1]): 0; Plant response rating, Rice (rice; [1]): 0; Plant response rating, Rice (rice; 250 g ai/ha, scale 0 to 100): 0; Plant response rating, Sedge, Umbrella (sedge, umbrella; [1]): 50; Plant response rating, Sedge, Umbrella (sedge, umbrella; [2]): 75; Plant response rating, Sedge, Umbrella (sedge, umbrella; [3]): 85; Plant response rating, Sedge, Umbrella (sedge, umbrella; 250 g ai/ha, scale 0 to 100): 90
CCCc1cc(C(=O)NC2CC2)nn1Cc1ccnc(OC(F)F)c1 [Compound 205]	0	25	35	75	90	100	80	60	80	85	100	100	5	5	95	100	100	100	0	0	Plant response rating, Barnyardgrass (barnyardgrass; 500 g ai/ha, scale 0 to 100): 60; Plant response rating, Ducksalad (ducksalad; 500 g ai/ha, scale 0 to 100): 100; Plant response rating, Rice (rice; 250 g ai/ha, scale 0 to 100): 0; Plant response rating, Rice (rice; 500 g ai/ha, scale 0 to 100): 35; Plant response rating, Sedge, Umbrella (sedge, umbrella; [2]): 75; Plant response rating, Sedge, Umbrella (sedge, umbrella; [3]): 95; Plant response rating, Sedge, Umbrella (sedge, umbrella; 250 g ai/ha, scale 0 to 100): 100; Plant response rating, Sedge, Umbrella (sedge, umbrella; 500 g ai/ha, scale 0 to 100): 100
